Measurements reported in the OPERA property sets (Mansouri et al. 2018).
Peptide text beside a SMILES is read from it.

Compound | logP
CCOP(=S)(OCC)Oc1cc(C)nc(N(CC)CC)n1 | 4.85
O=C(Nc1cccc2cccnc12)C(F)(F)F | 3.24
CC(=O)c1ccc(N2CCCCC2)cc1 | 3.13
Cc1ccc(C(C)C)cc1 | 4.1
CON(C)C(=O)Nc1ccc(C(C)=O)cc1 | 1.22
O=C(O)c1cc([N+](=O)[O-])ccc1O | 2.34
C1COCCOCCOCCOCCO1 | -0.48
Cc1cc2[nH]c(=O)c(=O)[nH]c2cc1C | 1.34
CCOCC(O)Cn1cnc([N+](=O)[O-])n1 (stereo not drawn) | -0.07
Nc1ccc(S)cc1 | 1.31
CC(CN(C)C)CN1c2ccccc2Sc2ccccc21 (stereo not drawn) | 4.71
COc1cc(N)c(Cl)cc1C(=O)NC1CCN(Cc2ccccc2)CC1 | 3.58
Cc1cccc(C=C(C(N)=O)C(N)=O)c1 | 0.4
N#CC(C(=O)NC(CO)C(O)c1ccc([N+](=O)[O-])cc1)c1ccccc1 (stereo not drawn) | 1.47
CC(=O)OCc1ccc(C)cc1 | 2.44
OCC=CCO | -0.81
COc1ccc(C=C(C(C)=O)C(C)=O)cc1 | 1.73
CCOP(=O)(OCC)OCC | 0.8
O=[N+]([O-])c1cccc(O)c1 | 2
O=CNc1cccc(Cl)c1 | 1.9
Nc1ccn([C@@H]2C=C(CO)[C@@H](O)[C@H]2O)c(=O)n1 | -2.45
O=C(O)c1ccccc1Br | 2.2
c1ccc(Oc2ccccn2)cc1 | 2.39
Cc1cc(O)c(C(C)C)cc1Cl | 3.92

Compound | logP
CCn1cc(C(=O)O)c(=O)c2cnc(N3CCNCC3)nc21 | -2.15
C=C(CC(=O)c1ccc(-c2ccccc2Cl)cc1)C(=O)O | 3.32
CC(=O)Nc1ccc(N(C)C)cc1 | 1
Brc1ccoc1 | 2.18
O=C(O)Cc1ccccc1 | 1.41
CCOC(=O)CBr | 1.12
O=C(c1ccccc1)c1ccc(NS(=O)(=O)C(F)(F)F)cc1 | 4.28
CCCC=O | 0.88
Cc1ccccc1C | 3.12
Nc1ccccc1N | 0.15
CC(C)(C)NC(=O)[C@H]1CC[C@H]2[C@@H]3CC[C@H]4NC(=O)C=C[C@]4(C)[C@H]3CC[C@]12C | 3.03
CC1CC2OC(=O)C(C)C2C(OC(=O)CC(=O)OC2C3C(CC(C)C4CCC(=O)C42C)OC(=O)C3C)C2(C)C(=O)CCC12 (stereo not drawn) | 0.76
Cc1cccc2ncc(-c3ccccc3)c(=O)n12 | 2.59
Fc1cccc2cccnc12 | 2.19
CCCN(N=O)C(N)=O | 0.3
CCCCCCC(=O)NN | 0.97
O=[N+]([O-])C=Cc1ccco1 | 1.56
Clc1cccnc1 | 1.33
O=C(OCc1ccccc1)n1c(=O)[nH]cc(F)c1=O | 1.42
CC1=CC(=O)C=CC1=O | 0.72
Cc1ccc(C(=O)O)c(O)c1 | 2.99
C=C1C[C@]23C[C@@]1(O)CC[C@H]2[C@@]12C=C[C@H](O)[C@@](C)(C(=O)O1)[C@H]2[C@@H]3C(=O)O | 0.24
CCC1C2CC3C4N(C)c5ccccc5C45CC(C2C5O)N3C1O (stereo not drawn) | 1.81
CN(CC(C)(C)C)N=O | 1.34

Compound | logP
CC(C)NNC(=O)COc1ccccc1Cl | 1.82
O=c1nn[nH]c2ccccc12 | 0.83
OCC(F)(F)C(F)(F)F | 1.23
O=C(O)c1ccccc1I | 2.4
Cc1cnc2ccccc2c1 | 2.53
CCN(CC)Cc1cccnc1 | 1.01
Nc1nc2nc[nH]c2c(=S)[nH]1 | -0.07
COc1cccc(OCC(=O)NNC(C)C)c1 | 1.33
FC(F)(F)c1nc2cc(Cl)c(Cl)cc2[nH]1 | 3.49
COC(=O)C1C(C=C(Cl)Cl)C1(C)C (stereo not drawn) | 3.63
CN(C)C(=O)C12CC3CC(CC(C3)C1)C2 | 2.55
CC(C)(C)C(=O)c1ccccc1 | 3
COc1cc(S(C)=O)ccc1-c1cn2ccnc(OC)c2n1 (stereo not drawn) | 1.49
COc1ccccc1[N+](=O)[O-] | 1.73
CS(=O)(=O)ON1C(=O)c2ccc([N+](=O)[O-])cc2C1=O | 1.71
NC(=O)CI | -0.19
CCO[Si](OCC)(c1ccccc1)c1ccccc1 | 4.92
CCN(CC)N=O | 0.48
C[C@]12CC[C@H](O)C[C@H]1CC[C@@H]1[C@@H]2C[C@@H](O)[C@]2(C)[C@@H](C3=CC(=O)OC3)CC[C@]12O | 1.1
O=C1C(=O)c2cccc3cccc1c23 | 1.95
CC(=O)NC(C)C(=O)NC(Cc1ccc(O)cc1)C(=O)NC(Cc1ccccc1)C(N)=O (stereo not drawn) (Ac-Ala-Tyr-Phe-NH2; configuration not given here) | 0.26
Nc1ncnc2[nH]cnc12 | -0.09
NC(CC(=O)O)c1ccccc1 (stereo not drawn) | -1.4
O=[N+]([O-])c1ccc(Cl)c(Cl)c1 | 3.12

Compound | logP
Oc1ccc(Cl)c(Cl)c1Cl | 3.8
CCCOC(=O)C(C(=O)OCCC)=C1SC=CS1 | 3.93
CC1=NCCN1 | 0.52
CCC1(c2ccccc2)C(=O)NC(=O)N(C)C1=O (stereo not drawn) | 1.84
CCOP(=O)(OCC)Oc1ccc(SC)cc1Cl | 3.05
S=C=Nc1ccc2ccccc2c1 | 4.34
C=C(C)C(=O)OCCO | 0.47
CN1C(=O)CN=C(c2ccccc2)c2cc(C#N)ccc21 | 1.8
O=C1CN=C(c2ccccc2)c2cc(Cl)ccc2N1CC1CC1 | 3.73
CNc1c(NCCSCc2nc[nH]c2C)c(=O)c1=O | -0.08
CCn1nc2ccccc2n1 | 2.1
COc1ccc(C(c2ccc(OC)cc2)C(Cl)(Cl)Cl)cc1 | 5.08
O=[N+]([O-])c1cccc(I)c1 | 2.94
CCOC(=O)C(=Cc1cccc(OCC)c1)C(=O)OCC | 3.39
O=C(O)Cc1cccc(O)c1 | 0.85
CCCCCc1cn[nH]c1 | 2.96
Sc1ccccn1 | -0.13
ICI | 2.3
c1ccc(Cn2ccnn2)cc1 | 1.27
CNc1nc2c3cccnc3ccc2n1C | 1.82
CCCCC(=O)OCC1CCC(n2cnc3c(=O)[nH]cnc32)O1 (stereo not drawn) | 0.65
COc1cc(O)ccc1O | 0.47
CC(C)C(C)C | 3.42
C=CCOc1ccc(CC(=O)O)cc1Cl | 2.48

Compound | logP
CC=Cc1c(OC)cc(Cc2cnc(N)nc2N)cc1OCC | 2.65
CNC(=O)Oc1ccc(OC)cc1 | 1.2
CC1(C)Cc2cccc(O)c2O1 | 2.08
CCCOC=O | 0.83
COC(=O)c1cccc(N2C(=O)CCC2=O)c1 | 0.36
O=S(=O)(c1ccccc1)c1cccc2cccnc12 | 2.33
NC(=O)c1ccc(F)cc1 | 0.91
CC(=O)Nc1ccc2[nH]c(C)cc2c1 | 1.21
Cc1ccccc1C=C[N+](=O)[O-] | 2.63
c1ccc(Cn2cnnc2)cc1 | 0.74
CCCCC(NC(C)=O)C(=O)OC (stereo not drawn) | 0.79
O=C1NCCN1c1ncc([N+](=O)[O-])s1 | 0.95
CCC1(CCC(C)C)C(=O)NC(=S)NC1=O | 2.98
O=C(C=CC(=O)c1ccccc1)c1ccccc1 | 3.16
CCCCCCCOc1ccc(NC(=O)OCCN2CCCCC2)cc1 | 5.87
CC(=O)Nc1ccccc1O | 0.72
CC(C)Cl | 1.9
CCSC(=O)N(CC(C)C)CC(C)C | 4.15
COP(=S)(Oc1cc(Cl)c(Br)cc1Cl)c1ccccc1 (stereo not drawn) | 6.31
CCCCS | 2.28
COC(=O)CCC(=O)OC | 0.35
CC(C)c1ccc(C(N)=O)cc1 | 2.14
Ic1ccc(I)cc1 | 4.11
CN1C(CCl)Nc2cc(Cl)c(S(N)(=O)=O)cc2S1(=O)=O (stereo not drawn) | 1.42

Compound | logP
NC(=O)Nc1cccc(Cl)c1 | 1.82
CN(C)c1nc(N)nc(N(C)C)n1 | 1.2
Cc1ccc(C(=O)NN)cc1 | 0.72
NC(=O)c1cccc(O)c1 | 0.39
CCNc1nc(Cl)nc(NC(C)C)n1 | 2.61
C=CCSc1ccccc1 | 3.51
CCC(C)C(NC(=O)C(CCC(=O)O)NC(C)=O)C(=O)NC(Cc1ccccc1)C(N)=O (stereo not drawn) (Ac-Glu-Ile-Phe-NH2; configuration not given here) | 0.43
N#Cc1cccc([N+](=O)[O-])c1 | 1.17
N#Cc1cc(-c2ccccc2)nnc1NCCN1CCOCC1 | 1.89
OCCNCc1ccccc1 | 0.79
Cc1cccc(Cl)c1NC1=NCCN1 | 1.71
N=C(N)NS(=O)(=O)c1ccc(N)cc1 | -1.22
O=C1C=CC(=O)N1c1ccccc1 | 1.09
CCCCNC(=O)c1cccnc1 | 0.9
CSc1ccc(COC(=O)N(C)C)cc1 | 2.86
c1nnn[nH]1 | -0.6
Cc1cccc2nccnc12 | 2.04
CCSc1ccc2c(c1)N(CCCN1CCN(C)CC1)c1ccccc1S2 | 5.41
CC(=O)N[C@@H](Cc1ccc(O)cc1)C(=O)N[C@@H](Cc1ccccc1)C(N)=O (Ac-Tyr-Phe-NH2) | 0.54
CCN=C=S | 1.47
Cc1cccc(Cl)c1 | 3.28
CC(=O)OCC1=C(C(=O)O)N2C(=O)[C@@H](NC(=O)Cc3cccs3)[C@H]2SC1 | -0.41
NC(=O)c1cccnc1 | -0.37
N#CCCCc1ccccc1 | 2.21

Compound | logP
O=C(C(=O)c1ccccc1)c1ccccc1 | 3.38
C=C(C)C(=O)OCC(C)C | 2.66
CCCCCCCCN(C)/N=N/c1ccc(C(N)=O)cc1 | 4.7
CC(C)OC(=O)c1cc(O)c(O)c(O)c1 | 1.54
CC1(C)CCCC(C)(C)N1 | 2.15
O=[N+]([O-])c1ccc2nc(C(F)(F)F)[nH]c2c1 | 2.68
CCCc1ccc([N+](=O)[O-])cc1 | 3.45
CCCCCn1cnc2c(NC(C)=O)ncnc21 | 0.98
CC(=O)N(c1ccc(N2CCOCC2)nn1)n1c(C)ccc1C | 1.64
N#Cc1sc2c(=O)c3ccccc3c(=O)c=2sc1C#N | 2.84
CNCCOc1cc(C)c(O)cc1C(C)C | 2.35
O=[N+]([O-])c1ccccc1O | 1.79
CNC1=CC(=O)c2ccccc2C1=O | 1.74
COc1cc(CCN)cc(OC)c1OC | 0.78
C=C(C)CC1(CC)C(=O)NC(=S)NC1=O | 2.19
Clc1ccc(Cl)c(Cl)c1 | 4.02
O=C(Cn1c(=O)sc2ccc(Cl)cc21)N1CCN(CCO)CC1 | 1.04
Nc1ccc(C(=O)O)cc1O | 0.5
COc1ccc(C(=O)OCCN(C)C)cc1 | 2.21
